# In patent US5877026A, “Analgesic peptides from venom of Grammostola spatulata and use thereof” (priority 1998, dated 1999):
# Where no end group is shown, it is not given here.
# Key:
# Type in all cases: in vivo, rat
# Sprague-Dawley rats [1] = experiment: Tail flick latency
# Excerpt: This test measures the time interval required for a rat to withdraw its tail, via a spinally mediated reflex mechanism, from a high intensity light source (IITC Inc./Life Sciences Instruments, Woodland Hills, Calif. 91367) focally applied to the dorsal surface of the appendage. The intensity of the light beam has been experimentally defined such that naive animals will withdraw their tails within 2 to 4 seconds. A maximum cut off time for the light source has been set at ten seconds to reduce the amount of secondary tissue damage.
# Data is expressed either as absolute time or a percentage of the maximal possible effect (MPE) which is described by the following equation where 10 seconds is the maximum: [formula] (Latency refers to the amount of time before the animal removed its appendage from the light source.)
# (§1) With minimal restraint, peptide GsAF I was injected intrathecally (i.th.) into young (75-150 gram) male Sprague-Dawley rats (Charles Rivers Laboratories, Wilmington, Mass. 01887). I.th. injections were made into the spinal subarachnoid space between lumbar spinous processes L4 and L5 using 10 microliter Hamilton syringes equipped with 3/8 inch by 28G needles. Dosing levels were based upon concentrations deduced from ultraviolet absorbance values at 280 nm using an extinction coefficient of 18710. Injection volume was 10 microliters. The injection vehicle was saline or 0.1% bovine serum albumin(BSA)/saline. The rats were pretreated with GsAF I 30 minutes prior to exposure to the light source.
# as §1, with “GsAF II” for “GsAF I”, “Wilmington, Mass.))” for “Wilmington, Mass. 01887). I.th. injections were made”, “using the deduced molar” for “using an”, “of 24310.” for “of 18710.”, “GsAF II 15” for “GsAF I 30”
# Sprague-Dawley rats [2] = experiment: Hot plate threshold
# Protocol: This test measures the temperature at which point a rat voluntarily removes one of its hindlimbs from the heated surface and either shakes or lick the affected appendage. The temperature of the heated surface is pre-set to the experimentally deduced value of 38° C. and a maximum cutoff value of either 53° C. or 54° C. has been used. Data is expressed either as absolute temperature in degrees C. or as percentage maximal possible effect as described by the formula [formula] (54 is substituted for 53 in the above formula if it is the maximal value.)
# as §1, with “Mass.)” for “Mass. 01887). I.th. injections were made”, “0.1 %bovine” for “0.1% bovine”, “heat.” for “the light source.”
# as §1, with “GsAF II” for “GsAF I”, “Wilmington, Mass.)” for “Wilmington, Mass. 01887). I.th. injections were made”, “GsAF II 15” for “GsAF I 30”, “to heat.” for “to the light source.”
# Sprague-Dawley rats [3] = experiment: Formalin pain test; details: for Acute Flinches, % control / Acute Flinches, absolute level: 0-5 minutes post formalin; for Tonic Flinches, % control / Tonic Flinches, absolute level / Tonic Licking, % control / Tonic Licking, absolute level: 20-35 minutes post formalin
# Protocol: The noxious stimulus for this test is the sub-cutaneous injection of a 5% solution of formalin into the dorsal surface of one of the hindlimbs of the animal. Motor activity indices used in this test are 1) the total time spent licking that appendage and 2) the total number of flinching/shaking responses of the affected appendage. Data collection is initiated immediately upon injection of the formalin solution into the limb. The acute phase response is defined by the time interval of 0-5 minutes post formalin injection. The tonic phase response is defined by the interval of 20-35 minutes post formalin injection Data collection is done in a computerized format. Expression of the data is done using either absolute values or as percent control which is defined by the level of response following injection of saline vehicle.
# as §1, with “Mass.)” for “Mass. 01887). I.th. injections were made”, “injection with” for “exposure to”, “formalin solution.” for “light source.”
# With minimal restraint, peptide GsAF II was injected intrathecally (i.th.) into young (75-150 gram) male Sprague-Dawley rats (Charles Rivers Laboratories, Wilmington, Mass.) into the spinal subarachnoid space between lumbar spinous processes L4 and L5 using 10 microliter Hamilton syringes equipped with 3/8 inch by 28G needles. Dosing levels were based upon concentrations deduced from ultraviolet absorbance values at 280 nm as stated previously. Based upon a mass of 3980 Da, 583 pmoles corresponds to 2.3 micrograms of GsAF II, and 2.33 nmoles corresponds to 9.3 micrograms of GsAF II. Injection volume was 10 microliters. The injection vehicle was saline or 0.1 % bovine serum albumin(BSA)/saline. The rats were pretreated with GsAF II 15 minutes prior to injection with formalin.
# In addition to the above analyses, 180 pmoles (666 nanograms) of GsAF I was administered 5 minutes after injection of 5% formalin and the tonic phase responses were recorded as described previously. The highly efficacious activity of GsAF I was retained. Tonic flinch response was inhibited 86% (i.e. 14% of control) and tonic lick duration was reduced 91 % (i.e. 9% of control). This property has only been reported for strong analgesic compounds that interact with μ-opioid receptors.
# [4] = 1.8 pmoles i.th., 30 minutes pretreatment
# [5] = 18 pmoles i.th., 30 minutes pretreatment
# [6] = 180 pmoles (666 nanograms) administered 5 minutes after injection of 5% formalin
# [7] = 180 pmoles i.th., 30 minutes pretreatment
# [8] = 583 picomoles (2.33 micrograms) i.th., 15 minutes pretreatment
# [9] = 583 pmoles i.th., 15 minutes pretreatment
# [10] = 2.33 nmoles i.th., 15 minutes pretreatment
substance,measurement,setting,value
Tyr-Cys-Gln-Lys-Trp-Leu-Trp-Thr-Cys-Asp-Ser-Glu-Arg-Lys-Cys-Cys-Glu-Asp-Met-Val-Cys-Arg-Leu-Trp-Cys-Lys-Lys-Arg-Leu-NH2 (YCQKWLWTCDSERKCCEDMVCRLWCKKRL-NH2; cysteine pairing not given here) [GsAF I],activity in tail flick latency,"Sprague-Dawley rats [1]; 1.8 picomoles (6.6 nanograms) i.th., 30 minutes pretreatment",inactive
same,"MPE, tail flick latency","Sprague-Dawley rats [1]; 18 picomoles (66 nanograms) i.th., 30 minutes pretreatment",29 % MPE
same,"MPE, tail flick latency","Sprague-Dawley rats [1]; 180 picomoles (666 nanograms) i.th., 30 minutes pretreatment",95 % MPE
same,inhibition of the tail flick response (latency value greater than 10 seconds),"Sprague-Dawley rats [1]; 180 picomoles (666 nanograms) i.th., in most rats",Complete inhibition
same,"confounding side effects (motor disturbances, limb impairment/paralysis, righting reflex, sedation)",Sprague-Dawley rats [1]; 180 picomoles i.th.,either minimal or not present
same,pretreatment time with maximal activity,"Sprague-Dawley rats [1]; i.th., tail flick",30 min
same,"MPE, hot plate threshold","Sprague-Dawley rats [2]; 18 picomoles (6.6 nanograms) i.th., one hour pretreatment",24 % MPE
same,activity in hot plate threshold,"Sprague-Dawley rats [2]; 18 picomoles i.th., 30 minute pretreatment",loss of significant activity
same,adverse motor effects,Sprague-Dawley rats [2]; 180 and 18 picomoles i.th.,No adverse motor effects were evident
same,"MPE, hot plate threshold","Sprague-Dawley rats [2]; 180 picomole (66 nanograms) i.th., one hour pretreatment",91 % MPE
same,"MPE, hot plate threshold","Sprague-Dawley rats [2]; 180 picomoles (666 nanograms) i.th., 30 minute pretreatment",70 % MPE
same,"Acute Flinches, % control",Sprague-Dawley rats [3]; [4],28%
same,"Acute Flinches, absolute level",Sprague-Dawley rats [3]; [4],12
same,"Tonic Flinches, % control",Sprague-Dawley rats [3]; [4],32%
same,"Tonic Flinches, absolute level",Sprague-Dawley rats [3]; [4],44.3
same,"Tonic Licking, % control",Sprague-Dawley rats [3]; [4],46%
same,"Tonic Licking, absolute level",Sprague-Dawley rats [3]; [4],84.3 s
same,"Acute Flinches, % control",Sprague-Dawley rats [3]; [5],20%
same,"Acute Flinches, absolute level",Sprague-Dawley rats [3]; [5],8.5
same,"Tonic Flinches, % control",Sprague-Dawley rats [3]; [5],21%
same,"Tonic Flinches, absolute level",Sprague-Dawley rats [3]; [5],29.5
same,"Tonic Licking, % control",Sprague-Dawley rats [3]; [5],8.4%
same,"Tonic Licking, absolute level",Sprague-Dawley rats [3]; [5],15.3 s
same,"Tonic flinch response, % of control",Sprague-Dawley rats [3]; [6],14 % of control
same,"Tonic flinch response, inhibition",Sprague-Dawley rats [3]; [6],86%
same,"tonic lick duration, % of control",Sprague-Dawley rats [3]; [6],9 % of control
same,"tonic lick duration, reduction",Sprague-Dawley rats [3]; [6],91%
same,"Acute Flinches, % control",Sprague-Dawley rats [3]; [7],8.9%
same,"Acute Flinches, absolute level",Sprague-Dawley rats [3]; [7],3.8
same,"Tonic Flinches, % control",Sprague-Dawley rats [3]; [7],3.0%
same,"Tonic Flinches, absolute level",Sprague-Dawley rats [3]; [7],4.3
same,"Tonic Licking, % control",Sprague-Dawley rats [3]; [7],0%
same,"Tonic Licking, absolute level",Sprague-Dawley rats [3]; [7],0 s
YCQKWMWTCDEERKCCEGLVCRLWCKKKIEW (cysteine pairing not given here) [GsAF II],inhibition of the tail flick response (latency greater than ten seconds),"Sprague-Dawley rats [1]; 2.33 nanomoles (9.27 micrograms) i.th., 15 minutes pretreatment, all animals (n=8)",Complete inhibition
same,confounding side effects,Sprague-Dawley rats [1]; 2.33 nanomoles and 583 picomoles i.th.,no confounding side effects were detected
same,"animals with 100% MPE, tail flick",Sprague-Dawley rats [1]; [8],five of six
same,"average MPE, tail flick latency",Sprague-Dawley rats [1]; [8],92%
same,"MPE, hot plate threshold","Sprague-Dawley rats [2]; 2.33 nanomole (9.27 micrograms) i.th., 15 minutes pretreatment, all animals",100 % MPE
same,motor coordination problems,Sprague-Dawley rats [2]; 2.33 nanomole and 583 picomoles i.th.,No motor coordination problems were witnessed
same,"average MPE, hot plate threshold","Sprague-Dawley rats [2]; 583 picomoles (2.32 micrograms) i.th., 15 minutes pretreatment",59%
same,"Acute Flinches, % control",Sprague-Dawley rats [3]; [9],41%
same,"Acute Flinches, absolute level",Sprague-Dawley rats [3]; [9],6.8
same,"Tonic Flinches, % control",Sprague-Dawley rats [3]; [9],9.5%
same,"Tonic Flinches, absolute level",Sprague-Dawley rats [3]; [9],8.2
same,"Tonic Licking, % control",Sprague-Dawley rats [3]; [9],8.2%
same,"Tonic Licking, absolute level",Sprague-Dawley rats [3]; [9],7.8 s
same,"Acute Flinches, % control",Sprague-Dawley rats [3]; [10],19%
same,"Acute Flinches, absolute level",Sprague-Dawley rats [3]; [10],3.25
same,"Tonic Flinches, % control",Sprague-Dawley rats [3]; [10],1.4%
same,"Tonic Flinches, absolute level",Sprague-Dawley rats [3]; [10],1.2
same,"Tonic Licking, % control",Sprague-Dawley rats [3]; [10],0%
same,"Tonic Licking, absolute level",Sprague-Dawley rats [3]; [10],0 s
